Values after ≈ are worked out from the molar mass of the structure shown. “Also recorded” adds a separate entry of the source.
Columns and labels:
[1] = system: Klebsiella pneumoniae ATCC 43816; experiment: Spectrum of antimicrobial activity; type: cell-based
[2] = system: mouse lymphoma cell tk+/−→tk−/− gene mutation; experiment: Mouse lymphoma cell tk+/−→tk−/− gene mutation (MOLY) assay; type: cell-based
Text: (§1) A liability in developing any bioreductively-activated antimicrobial drug is the potential for mutagenicity. Because the basis for activity of these compounds is the generation of intermediate radical species, undesirable mutagenicity poses a risk, as has been documented for many classes of bioreductive drugs, including the BTO tirapazamine (TPZ).^19,20 The most convenient methodology for assessing the potential to induce genetic damage is to use the plate incorporation method with Salmonella typhimurium strains TA98 and TA100, commonly known as the Ames assay. The Salmonella tester strains have mutations in the histidine operon, a mutation that leads to defective lipopolysaccharide (rfa), and a deletion that covers genes involved in the synthesis of biotin (bio) and in the repair of ultraviolet-induced DNA damage (uvrB).^21,22 These mutations make the strains more permeable to many molecules and increase their susceptibility to the mutagenic effects of these molecules. Given that the hypothesized mechanism of the BTO compounds is to selectively form cytotoxic radical species in bacteria over mammalian cells, a microbial mutagenicity assay is not ideal, but was used to benchmark their activities in this assay. […] Individual plate counts and their means and standard deviations, along with the condition of the background lawn, are presented in SI Table 2.
Experiments were conducted using a standard procedure for evaluating mutagenic potential.^23,24 The details on cell line, experimental procedures and data interpretaion have been previously published.^54 The following endpoints were evaluated in cells following exposure to 15fa and 20q: cell growth during expression periods, relative suspension growth, relative total growth, relative cloning efficiency, mutation frequency, and numbers of small (≦0.6 mm in diameter) colonies from trifluorothymidine-resistant (TFT^r) cells.

[3] = system: Enterococcus fecalis ATCC 29212; experiment: Spectrum of antimicrobial activity; type: cell-based
[4] = system: Escherichia coli ATCC 25922; experiment: Spectrum of antimicrobial activity; type: cell-based
[5] = system: Salmonella typhimurium tester strain TA100; experiment: Salmonella/microsome plate incorporation assay (Ames screen), TA100; type: cell-based
Text: as §1
Experimental compounds were screened for microbial mutagenicity activity using the plate incorporation method with Salmonella typhimurium tester strains TA98 and TA100, in the presence and absence of an Aroclor 1254-induced rat-liver metabolic activation system containing 10% S9 (MA). The presence of the appropriate genetic characteristics was verified for the strains used in this study. Stock solutions were made by dissolving each test sample in dimethyl sulfoxide (DMSO) at 5 mg/ml. These initial stock concentrations were then serially diluted to achieve dose formulations of 100, 50, 10, 5, 1, 0.5, and 0.1 μg/plate (dosing volume 100 μl). Test plates were compared with the control plates for their revertant count and for the condition of the background bacterial lawn. A test article was considered a mutagen when the mean number of revertant colonies on the test plates exceeds the mean solvent control counts by at least a two-fold margin. Dose relatedness was also taken into account when evaluating a mutagenic response. Cytotoxicity was estimated by several parameters: a substantial decrease in the number of revertant colonies on the test plates, clearing or absence of the background bacterial lawn growth, formation of pinpoint nonrevertant colonies, or complete absence of bacterial growth.

[6] = system: Enterobacter aerogenes ATCC 29751; experiment: Spectrum of antimicrobial activity; type: cell-based
[7] = system: Enterobacter aerogenes SRI Collection; experiment: Spectrum of antimicrobial activity; type: cell-based
[8] = system: Enterococcus faecium ATCC 19434; experiment: Spectrum of antimicrobial activity; type: cell-based
[9] = system: Moraxella catarrhalis ATCC 25238; experiment: Spectrum of antimicrobial activity; type: cell-based
[10] = system: Acinetobacter baumannii ATCC 17978; experiment: Spectrum of antimicrobial activity; type: cell-based
[11] = system: Pseudomonas aeruginosa ATCC 27853; experiment: Spectrum of antimicrobial activity; type: cell-based
[12] = system: Escherichia coli pKM101 SRI Collection; experiment: Spectrum of antimicrobial activity; type: cell-based
[13] = Solubility, shake-flask method; type: physicochemical; details: 0.9% saline solution at pH 7.4, triplicate
Procedure: The solubility of these two compounds was measured in triplicate using the shake-flask method in a 0.9% saline solution at pH 7.4. Both 8a and 20q had acceptable solubilities of 1.35 mg/mL and 0.28 mg/mL, respectively.
Compounds were ground into a fine powders using a mortar and pestle and added to a 25 mL glass Erlenmeyer flask with 5 mL of a 0.9% saline solution at pH 7.4. Approximately 20 mg of compound was added to each flask to ensure saturation. The flasks were then vigorously stirred using a magnetic stir bar at 25° C. for 48 hours. The samples were then filtered through a Whatman PVDF membrane (0.45 μm pore size) syringe filter. The concentration of compound in the supernatant was then measured using HPLC quantitation at the maximum absorption wavelength for each compound.

[14] = system: Salmonella typhimurium -Hisg46 SRI Collection; experiment: Spectrum of antimicrobial activity; type: cell-based
[15] = system: Enterococcus fecalis ATCC 51575; experiment: Spectrum of antimicrobial activity; type: cell-based
[16] = TA100, with metabolic activation (10% S9), 0.1 μg per plate
[17] = TA100, with metabolic activation (10% S9), 0.5 μg per plate
[18] = TA100, with metabolic activation (10% S9), 1 μg per plate
[19] = TA100, with metabolic activation (10% S9), 5 μg per plate
[20] = TA100, with metabolic activation (10% S9), 10 μg per plate
[21] = TA100, with metabolic activation (10% S9), 50 μg per plate
[22] = TA100, with metabolic activation (10% S9), 100 μg per plate
[23] = TA100, without metabolic activation, 0.1 μg per plate
[24] = TA100, without metabolic activation, 0.5 μg per plate
[25] = TA100, without metabolic activation, 1 μg per plate
[26] = TA100, without metabolic activation, 5 μg per plate
[27] = TA100, without metabolic activation, 10 μg per plate
[28] = TA100, without metabolic activation, 50 μg per plate
[29] = TA100, without metabolic activation, 100 μg per plate

With [O-][n+]1nc(N2CCCC2)[n+]([O-])c2cc3c(cc21)CCC3 [Compound 20q, 3-(pyrrolidin-1-yl)-7,8-dihydro-6H-indeno[5,6-e][1,2,4]triazine 1,4-dioxide] the “Antimicrobial activity, Klebsiella pneumoniae” value [1] was >32 µg/mL, the “Mutagenic potential in MOLY assay” value ([2]; 10 μg/mL, +S9, 4-Hr Exposure) was “Negative” and the “Mutagenic potential in MOLY assay” value ([2]; 10 μg/mL, +S9, 24-Hr Exposure) was “Negative”. For the same molecule, the “Mutagenic potential in MOLY assay” value ([2]; 10 μg/mL, −S9, 4-Hr Exposure) was “Negative”, the “Mutagenic potential in MOLY assay” value ([2]; 10 μg/mL, −S9, 24-Hr Exposure) was “Negative” and the “Mutagenic potential in MOLY assay” value ([2]; 25 μg/mL, +S9, 4-Hr Exposure) was “Negative^a”. For the same molecule, the “Mutagenic potential in MOLY assay” value ([2]; 25 μg/mL, +S9, 24-Hr Exposure) was “Negative”, the “Mutagenic potential in MOLY assay” value ([2]; 25 μg/mL, −S9, 4-Hr Exposure) was “Negative” and the “Mutagenic potential in MOLY assay” value ([2]; 25 μg/mL, −S9, 24-Hr Exposure) was “Negative”. For the same molecule, the “Mutagenic potential in MOLY assay” value ([2]; 50 μg/mL, +S9, 4-Hr Exposure) was “Negative”, the “Mutagenic potential in MOLY assay” value ([2]; 50 μg/mL, +S9, 24-Hr Exposure) was “Negative” and the “Mutagenic potential in MOLY assay” value ([2]; 50 μg/mL, −S9, 4-Hr Exposure) was “Negative”. For the same molecule, the “Mutagenic potential in MOLY assay” value ([2]; 50 μg/mL, −S9, 24-Hr Exposure) was “Negative”, the “Mutagenic potential in MOLY assay” value ([2]; 100 μg/mL, +S9, 4-Hr Exposure) was “Negative” and the “Mutagenic potential in MOLY assay” value ([2]; 100 μg/mL, +S9, 24-Hr Exposure) was “Negative”. The “Mutagenic potential in MOLY assay” value ([2]; 100 μg/mL, −S9, 4-Hr Exposure) was “Negative”, the “Mutagenic potential in MOLY assay” value ([2]; 100 μg/mL, −S9, 24-Hr Exposure) was “Negative” and the “mutation frequency in MOLY assay” value ([2]; presence or absence of S9, non-cytotoxic dose levels, up to 100 μg/mL for 20q) was “no mutagenic activity; also recorded: negative response for mutation frequency”. The “Antimicrobial activity, Enterococcus fecalis” value [3] was >32 µg/mL, the “Antimicrobial activity, Escherichia coli” value [4] was >32 µg/mL and the “Mean revertants per plate” value [5, 16] was 171.5. The Ratio treated/solvent [5, 16] was 1.1, the “Mean revertants per plate” value [5, 17] was 204.0 and the Ratio treated/solvent [5, 17] was 1.3. The “Mean revertants per plate” value [5, 18] was 180.5, the Ratio treated/solvent [5, 18] was 1.1 and the “Mean revertants per plate” value [5, 19] was 267.0. For the same molecule, the Ratio treated/solvent [5, 19] was 1.7, the “Mean revertants per plate” value [5, 20] was 291.5 and the Ratio treated/solvent [5, 20] was 1.8. For the same molecule, the “Mean revertants per plate” value [5, 21] was 700.5, the Ratio treated/solvent [5, 21] was 4.4 and the “Mean revertants per plate” value [5, 22] was 916.0. For the same molecule, the Ratio treated/solvent [5, 22] was 5.8, the “Mean revertants per plate” value [5, 23] was 173.0 and the Ratio treated/solvent [5, 23] was 1.2. For the same molecule, the “Mean revertants per plate” value [5, 24] was 155.0, the Ratio treated/solvent [5, 24] was 1.0 and the “Mean revertants per plate” value [5, 25] was 206.0. For the same molecule, the Ratio treated/solvent [5, 25] was 1.4, the “Mean revertants per plate” value [5, 26] was 303.0 and the Ratio treated/solvent [5, 26] was 2.0. For the same molecule, the “Mean revertants per plate” value [5, 27] was 392.0, the Ratio treated/solvent [5, 27] was 2.6 and the “Mean revertants per plate” value [5, 28] was 1033.5. The Ratio treated/solvent [5, 28] was 7.0, the “Mean revertants per plate” value [5, 29] was 1468.0 and the Ratio treated/solvent [5, 29] was 9.9. For the same molecule, the “number of revertant colonies, TA100” value ([5]; presence and absence of metabolic activation) was “dose-related increases in the number of revertant colonies”, the “Antimicrobial activity, Enterobacter aerogenes” value [6] was >32 µg/mL and the “Antimicrobial activity, Enterobacter aerogenes” value [7] was >32 µg/mL. For the same molecule, the “Antimicrobial activity, Enterococcus faecium” value [8] was >32 µg/mL, the “Antimicrobial activity, Moraxella catarrhalis” value [9] was 10 µg/mL and the “Antimicrobial activity, Acinetobacter baumannii” value [10] was >32 µg/mL. The “Antimicrobial activity, Pseudomonas aeruginosa” value [11] was >32 µg/mL, the “Antimicrobial activity, Escherichia coli pKM101” value [12] was >32 μg/mL and the solubility [13] was 280 µg/mL (≈ 1030 µM). The “Antimicrobial activity, Salmonella typhimurium -Hisg46” value [14] was >32 µg/mL and the “Antimicrobial activity, Enterococcus fecalis” value [15] was >32 µg/mL.

Reference: patent US9663478B2, “Benzotriazine oxides as drugs targeting Mycobacterium tuberculosis” (priority 2011, dated 2017)
